Reference: patent publication US20220362771A1, “USE OF DROPLET SINGLE CELL EPIGENOME PROFILING FOR PATIENT STRATIFICATION” (HiFiBio SAS, priority 2018, published 2022)
Read-outs that look alike come from different tables or passages of the source.

Tests used:
[1] = test system: HBCx-95 triple-negative breast tumor PDX; test: breast tumor PDX model of acquired resistance to Capecitabine; format: in vivo, mice
Description: (a) n=6 mice with HBCx-95 derivatives were treated with Capecitabine for 6 weeks. Graphs represent relative tumor volumes (RTV, mm3) with time. Mice with recurrent tumors were treated for a second round of Capecitabine when PDX reached a volume of over 200 mm3 (mice #35, #40 & #33). […] Samples studied in manuscript are indicated with a dashed rectangle. (b) Histograms of the distribution of scChIP-seq raw and unique sequencing reads per cell in untreated HBCx-95 and Capecitabine-resistant HBCx-95-CapaR PDX. (c) Scatter plot displaying the log 2 enrichments in cumulative single-cell versus bulk H3K27me3 ChIP-seq data, calculated based on the counts per million mapped reads in 50 kb genomic bins. Pearson correlation score and p-value are computed genome-wide. (d) Distribution of the log 2 enrichments in 50 kb genomic bins for cumulative single-cell and bulk H3K27me3 ChIP-seq data. Amplitude between maximum and minimum log 2 enrichments are indicated on the top right for each ChIP-seq method (either bulk or single-cell).
It was profiled the H3K27me3 landscape at single-cell resolution for both sensitive and resistant xenografts, HBCx-95 and HBCx-95-CapaR (FIG. 17b), and it was also performed scRNA-seq to evaluate transcriptional heterogeneity within the same cell suspension (FIG. 18a). Cumulative single-cell chromatin profiles match bulk ChIP-seq profiles (FIG. 17c-d, r=0.89 with p<10-15).

MNase = MNase (Staphylococcus aureus, UniProt P00644); test: EGTA inactivation of MNase activity in droplets; format: biochemical; conditions: fraction of oligonucleotide remaining measured by TapeStation, normalized to droplets without MNase
Description: FIG. 3 depicts the concentration of EGTA necessary to fully inactivates MNase activity in droplets. The fraction of oligonucleotide remaining after incubation was measured by TapeStation and normalized to the digestion negative control (i.e droplets without MNase). 26 mM final concentration of EGTA fully inactivated MNase in droplets.
At the end of the encapsulation, droplets are incubated off-chip for single-cell chromatin fragmentation. Cells are lysed in droplets, making their nuclear DNA accessible for MNase enzyme. The kinetic of the digestion is particularly important to yield preferentially mono-nucleosomes, which are retained in the droplet. The ideal incubation time is defined as the time necessary to get 100% of nuclear DNA fragmented into mono-nucleosomes. The digestion conditions including lysis buffer composition, MNase concentration and incubation time are precisely calibrated for each sample by performing a time-course study. The calibration is carried out as follows: 45 pl droplets containing cells, lysis buffer and MNase are produced, collected in a collection tube and placed at 37° C. for different incubation time. At each time point, a fraction of droplets is broken and MNase immediately inactivated by addition of EGTA (see FIG. 3). DNA fragments are then purified and analyzed by electrophoresis. […]

[2] = test system: HBCx-22 luminal ER+ breast PDX; conditions: cited from earlier work

CCCCCOC(=O)Nc1nc(=O)n([C@@H]2O[C@H](C)[C@@H](O)[C@H]2O)cc1F [Capecitabine]
tumor response to Capecitabine (relative tumor volume) ([1]; mouse #40, recurrent tumor, second round of Capecitabine, PDX extracted at 1080 mm3 as HBCx-95-CapaR): did not respond
tumor response to Capecitabine ([1]; xenograft derivatives from an individual patient (HBCx-95), before two cycles of treatment): initially responsive

O=C(O)CN(CCOCCOCCN(CC(=O)O)CC(=O)O)CC(=O)O [EGTA]
final concentration of EGTA that fully inactivated MNase in droplets (MNase): 26 mM

CC/C(=C(\c1ccccc1)c1ccc(OCCN(C)C)cc1)c1ccccc1 [Tamoxifen]
tumor response to Tamoxifen ([2]; HBCx-22-TamR tumor derivative, previously characterized): acquired resistance
tumor response to Tamoxifen ([2]; HBCx-22 PDX): responsive
